# Data taken from patent publication US20240287138A1, “CYCLIC PEPTIDES FOR INHIBITING TNF RECEPTOR 1 ACTIVITY” (Merck Sharp & Dohme LLC, priority 2023, published 2024).
# Numbered stars: 1 amine (or outer) side, 2 acyl side, 3 side chain; on linkers, the order of the positions; unused ones are H or OH. Bridge positions count the residues as written; N and C are the ends. Square brackets hold non-standard residues; d marks the D form. Peptide text beside a SMILES is read from it. Trp(βS-Me,7-OMe) = COc1cccc2c([C@H](C)[C@H](N)C(=O)O)c[nH]c12; X34 = O=C([C@H](Cc1c[nH]c2c(Cl)c(F)ccc12)N[*:1])[*:2]; Trp(7-CN) = N#Cc1cccc2c(C[C@H](N)C(=O)O)c[nH]c12; Trp(7-Cl) = N[C@@H](Cc1c[nH]c2c(Cl)cccc12)C(=O)O; Phe(4-CONH2) = NC(=O)c1ccc(C[C@H](N)C(=O)O)cc1; Phe(4-COOH) = N[C@@H](Cc1ccc(C(=O)O)cc1)C(=O)O; 4Pal(3S-Me) = C[C@@H](c1ccncc1)[C@H](N)C(=O)O; Trp(1-Me) = Cn1cc(C[C@H](N)C(=O)O)c2ccccc21; Pip(5R-OH) = O=C(O)[C@@H]1CC[C@@H](O)CN1; X1 = O=C([C@@H]1CC[C@H](N[*:1])C1)[*:2]; Pip(4-aza) = O=C(O)[C@@H]1CNCCN1; 4Pal = N[C@@H](Cc1ccncc1)C(=O)O; NMeE = CN[C@@H](CCC(=O)O)C(=O)O; dHyp = O=C(O)[C@H]1C[C@H](O)CN1; Ahp(2) = CCCCC[C@H](N)C(=O)O; hSer = N[C@@H](CCO)C(=O)O; αMeS = C[C@](N)(CO)C(=O)O; Nle = CCCC[C@H](N)C(=O)O; Sar = CNCC(=O)O
# Legend:
# [1] = target: T1, human soluble TNFR1 (sTNFR1) (Homo sapiens, UniProt P19438); assay: Human sTNFR1-peptide displacement assay (LanthaScreen Eu TR-FRET binding assay)
# T1 construct: made in house; host or cells: Sf21 (baculovirus)
# T1 sequence (P19438 with tags, fused parts or gaps): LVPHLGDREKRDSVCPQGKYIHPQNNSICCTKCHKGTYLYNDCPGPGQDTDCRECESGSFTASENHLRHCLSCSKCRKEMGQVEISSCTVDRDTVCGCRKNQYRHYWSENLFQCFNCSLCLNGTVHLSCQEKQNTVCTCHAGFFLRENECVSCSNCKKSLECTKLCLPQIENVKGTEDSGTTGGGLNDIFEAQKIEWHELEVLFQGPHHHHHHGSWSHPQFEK
# Method in brief: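 Readout is the 665/615 nm TR-FRET ratio (Eu anti-His donor, streptavidin-Alexa647 acceptor), normalized to DMSO and saturating displacer, fit by Morrison-based five-parameter logistic for Kd^app. His-tagged sTNFR1 (1-211) prebound to 100 nM biotinylated peptide SEQ ID NO.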
# [2] = target: T2, human TNFR1 extracellular domain (ECD) protein (Homo sapiens, UniProt P19438); assay: SPR binding affinity to captured human TNFR1 ECD
# T2 construct: HRV 3C protease cleavage site (C); 6His (C, cleaved yes); made in house; host or cells: Sf21 insect cells (baculovirus), secreted
# T2 sequence (P19438 30-211): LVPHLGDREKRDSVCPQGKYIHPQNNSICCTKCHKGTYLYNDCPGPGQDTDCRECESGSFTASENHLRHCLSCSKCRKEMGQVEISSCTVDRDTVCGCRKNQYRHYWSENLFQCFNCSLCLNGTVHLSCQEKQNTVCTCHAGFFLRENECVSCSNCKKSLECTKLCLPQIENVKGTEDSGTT
# Method in brief: (§1)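 Biotinylated avi-tagged human TNFR1 or TNFR2 ECD, expressed in Sf21 insect cells, captured on streptavidin SPR chip; peptide analytes run in 10 mM HEPES pH 7.4, 150 mM NaCl, 3 mM EDTA, 0.05% P20, 2% DMSO. kon and koff measured, affinity KA calculated.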
# human TNFR2 ECD protein = target: T3, human TNFR2 ECD protein (Homo sapiens, UniProt P20333); assay: SPR off-target binding (selectivity) to human TNFR2 ECD
# T3 construct: HRV 3C protease cleavage site (C); 6His (C, cleaved yes); made in house; host or cells: Sf21 insect cells (baculovirus), secreted
# T3 sequence (P20333 23-257): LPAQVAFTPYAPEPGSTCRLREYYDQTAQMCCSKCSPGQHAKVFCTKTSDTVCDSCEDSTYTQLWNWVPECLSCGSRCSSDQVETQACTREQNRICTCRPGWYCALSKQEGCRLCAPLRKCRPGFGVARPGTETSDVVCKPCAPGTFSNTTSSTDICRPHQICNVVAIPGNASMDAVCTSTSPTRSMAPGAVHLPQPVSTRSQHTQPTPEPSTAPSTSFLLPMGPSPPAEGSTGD
# Method in brief: as §1
Structure (SMILES),Kd [1],Kd [2],Kd (human TNFR2 ECD protein),IC50 [1]
"CCCCC[C@@H]1NC(=O)[C@@H]2CC[C@@H](C2)NC(=O)[C@H]([C@@H](C)c2c[nH]c3c(OC)cccc23)NC(=O)CN(C)C(=O)[C@H](Cc2ccc(C(N)=O)cc2)NC(=O)[C@H](Cc2ccc(C(N)=O)cc2)NC(=O)[C@](C)(CO)NC(=O)[C@H](Cc2c[nH]c3c(C#N)cccc23)NC(=O)[C@H](Cc2ccc(C(=O)O)cc2)NC(=O)[C@H](CC(N)=O)NC(=O)[C@H]2C[C@H](O)CN2C(=O)[C@H](Cc2c[nH]c3ccccc23)NC(=O)[C@H](CC(N)=O)NC(=O)[C@H]([C@@H](C)c2ccncc2)NC1=O [SEQ ID NO. 92] (cyclo([Ahp(2)][4Pal(3S-Me)]NW[dHyp]N[Phe(4-COOH)][Trp(7-CN)][αMeS][Phe(4-CONH2)][Phe(4-CONH2)][Sar][Trp(βS-Me,7-OMe)][X1]))",0.24 nM,0.05 nM,> 1000 nM,–
"CCCCC[C@@H]1NC(=O)[C@@H]2CC[C@@H](C2)NC(=O)[C@H]([C@@H](C)c2c[nH]c3c(OC)cccc23)NC(=O)CN(C)C(=O)[C@H](Cc2ccc(C(N)=O)cc2)NC(=O)[C@H](Cc2ccc(C(=O)O)cc2)NC(=O)[C@](C)(CO)NC(=O)[C@H](Cc2c[nH]c3c(Cl)c(F)ccc23)NC(=O)[C@H](Cc2ccncc2)NC(=O)[C@H](CC(N)=O)NC(=O)[C@H]2C[C@H](O)CN2C(=O)[C@H](Cc2c[nH]c3ccccc23)NC(=O)[C@@H]2CNCCN2C(=O)[C@H](Cc2ccncc2)NC1=O [SEQ ID NO. 112] (cyclo([4Pal][Pip(4-aza)]W[dHyp]N[4Pal][X34][αMeS][Phe(4-COOH)][Phe(4-CONH2)][Sar][Trp(βS-Me,7-OMe)][X1][Ahp(2)]))",0.24 nM,0.03 nM,> 1000 nM,–
"CCCC[C@@H]1NC(=O)CSC[C@@H](C(N)=O)NC(=O)[C@H]([C@@H](C)c2c[nH]c3c(OC)cccc23)NC(=O)CN(C)C(=O)[C@H](Cc2ccc(O)cc2)NC(=O)[C@H](Cc2ccc(C(N)=O)cc2)NC(=O)[C@](C)(CO)NC(=O)[C@H](Cc2c[nH]c3c(Cl)cccc23)NC(=O)[C@H](Cc2ccncc2)NC(=O)[C@H](CC(N)=O)NC(=O)[C@H](CCC(=O)O)N(C)C(=O)[C@H](Cc2cn(C)c3ccccc23)NC(=O)[C@@H]2CC[C@@H](O)CN2C(=O)[C@H](Cc2ccncc2)NC1=O [SEQ ID NO. 151] ({CH2CO}-[Nle][4Pal][Pip(5R-OH)][Trp(1-Me)][NMeE]N[4Pal][Trp(7-Cl)][αMeS][Phe(4-CONH2)]Y[Sar][Trp(βS-Me,7-OMe)]C-NH2; thioether N-14)",0.11 nM,0.04 nM,> 1000 nM,0.29 nM
"COCC[C@@H]1NC(=O)[C@@H]2CC[C@@H](C2)NC(=O)[C@H]([C@@H](C)c2c[nH]c3c(OC)cccc23)NC(=O)CN(C)C(=O)[C@H](Cc2ccc(C(N)=O)cc2)NC(=O)[C@H](Cc2ccc(C(N)=O)cc2)NC(=O)[C@](C)(CO)NC(=O)[C@H](Cc2c[nH]c3c(C#N)cccc23)NC(=O)[C@H](Cc2ccc(C(=O)O)cc2)NC(=O)[C@H](CC(N)=O)NC(=O)[C@H]2C[C@H](O)CN2C(=O)[C@H](Cc2c[nH]c3ccccc23)NC(=O)[C@@H]2CC[C@@H](O)CN2C(=O)[C@H](Cc2ccncc2)NC1=O [SEQ ID NO. 194] (cyclo([4Pal][Pip(5R-OH)]W[dHyp]N[Phe(4-COOH)][Trp(7-CN)][αMeS][Phe(4-CONH2)][Phe(4-CONH2)][Sar][Trp(βS-Me,7-OMe)][X1][hSer](Me)))",0.05 nM,0.04 nM,> 1000 nM,–
